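96-well plates; 48 h exposure; 5 concentrations. Endpoints by linear interpolation between flanking doses. Not reached: highest tested concentration assigned. Abbreviation: GI50, concentration required for 50% inhibition of growth.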 Activity calls are given as the source filed them. Cut-off read from the data, not from the text of the source: active = GI50 up to about 1.1 µM and inactive = higher.
Columns and labels:
Assay in all cases: DTP human tumour cell line panel, 48 h
[1] = system: OVCAR-8
[2] = system: SK-OV-3
[3] = system: SNB-19
[4] = system: PC-3
[5] = system: NCI-H460
[6] = system: SW-620
[7] = system: DU-145
[8] = system: MDA-MB-231
[9] = system: SF-539
[10] = system: SF-295
[11] = system: CCRF-CEM
[12] = system: SNB-75
[13] = system: OVCAR-4
[14] = system: U-251
[15] = system: MDA-MB-435
[16] = system: TK-10
[17] = system: RXF 393
[18] = system: KM12
[19] = system: 786-0
[20] = system: ACHN

Measured: GI50

O=c1c2ccccc2nc2n1NC(c1c(Cl)cccc1Cl)N2c1cccc(Cl)c1 (stereo not given)
inactive: [1] 3.26 µM | [2] 2.26 µM | [3] 4.43 µM | [4] 5.11 µM | [5] 5.13 µM | [6] 3.32 µM | [7] 11.4 µM | [8] 2.79 µM | [9] 11.5 µM | [10] 9.33 µM | [11] > 100 µM | [12] 2.64 µM | [13] 2.65 µM | [14] 2.14 µM | [15] 9.35 µM | [16] 7.69 µM | [17] 4.78 µM | [18] 7.24 µM | [19] 2.1 µM | [20] 3.1 µM

N#Cc1c2c(c(Nc3ccc(Cl)cc3)n3c1nc1ccccc13)CCCC2
inactive: [1] 37.6 µM | [2] 54.7 µM | [3] 23.1 µM | [4] 7.06 µM | [5] 14.8 µM | [6] > 61 µM | [7] > 69.2 µM | [8] > 86.9 µM | [9] 21.1 µM | [10] 28.5 µM | [11] 34.6 µM | [12] 28.7 µM | [13] 16.2 µM | [14] 18.5 µM | [15] > 100 µM | [16] 53.1 µM | [17] 33.7 µM | [18] 20.3 µM | [19] 26.9 µM | [20] 18.6 µM

CCOC(=O)c1c(N2CCOCC2)[nH]c(=O)c(C(c2ccco2)c2c(O)c(C(=O)OCC)c(N3CCOCC3)[nH]c2=O)c1O
inactive: [1] > 100 µM | [2] > 100 µM | [3] > 100 µM | [4] > 100 µM | [5] > 100 µM | [6] > 100 µM | [7] > 100 µM | [8] > 100 µM | [9] > 100 µM | [10] > 100 µM | [11] > 100 µM | [12] > 100 µM | [13] > 100 µM | [14] > 100 µM | [15] > 100 µM | [16] > 100 µM | [17] > 100 µM | [18] > 100 µM | [19] > 100 µM | [20] > 100 µM

Nc1cc2c3c(c1)Oc1cc(N)cc4c1C3c1c(cc(N)cc1O4)O2
inactive: [1] 9.48 µM | [2] 46.5 µM | [3] 37.5 µM | [4] 26.1 µM | [5] 30.3 µM | [6] 33.7 µM | [7] 3.03 µM | [8] 16.2 µM | [9] 15.7 µM | [10] 26.2 µM | [11] 43.4 µM | [12] 19.3 µM | [13] 56.5 µM | [14] 43.1 µM | [15] 29 µM | [16] 41.7 µM | [17] 12.3 µM | [18] 22.9 µM | [19] 25.3 µM | [20] 22 µM

COC(=O)C(Cc1ccccc1)NP(=O)(O)OCC1OC(n2cc(Br)c(=O)[nH]c2=O)CC1O (stereo not given)
inactive: [1] > 100 µM | [2] > 100 µM | [3] > 100 µM | [4] > 100 µM | [5] > 100 µM | [6] > 100 µM | [7] > 100 µM | [8] > 100 µM | [9] > 100 µM | [10] > 100 µM | [11] > 100 µM | [12] > 100 µM | [13] > 100 µM | [14] > 100 µM | [15] > 100 µM | [16] > 100 µM | [17] > 100 µM | [18] > 100 µM | [19] > 100 µM | [20] > 100 µM
